Consider five compounds from patent US10023554B2, “Halogen-substituted heterocyclic compound salt” (UBE INDUSTRIES, LTD., priority 2014, dated 2018).

For this assay, the system named is A2058 human melanoma cells. Nature of the assay: Cell migration test (LPA-induced migration, Chemo-Tx). Type of assay: cell-based. Conditions: LPA final concentration 100 nM, 3 hours at 37° C., read-out: concentration (IC50) of the test compound required for 50% inhibition of the cell migration activity of LPA. As to the method: The cell migration test was carried out using Chemo-Tx (registered trademark) (116-8, Neuro Probe). A2058 human melanoma cells (obtained from European Collection of Cell Culture) were cultured in a serum-free EMEM medium for 24 hours, and were re-suspended in a 0.1% BSA-containing DMEM medium to give a cell suspension. The test compounds dissolved in DMSO in various concentrations were each added to the cell suspension, and the suspensions were cultured at 37° C. for 15 minutes (final DMSO concentration 0.5%). LPA dissolved in a 0.1% BSA-containing DMEM medium (final concentration 100 nM) was added to a Chemo-Tx 96 well plate, and a Chemo-Tx filter coated with 0.001% Fibronectin on both sides was placed onto the plate. The cultured cell suspensions (25,000 cells) were added onto the upper surface of the filter and were further cultured at 37° C. for 3 hours. Thereafter, the cells on the upper surface of the filter were removed. After the filter was removed and was dried, the cells which had migrated to the lower surface of the filter were stained with Diff-Quik stain (16920, Sysmex). The absorbance of the filter (570 nm) was measured and the concentration (IC50) of the test compound required for 50% inhibition of the cell migration activity of LPA was determined by non-linear regression analysis using EXSAS (version 7.6.0, Arm Systex).
On to `COc1cc(-c2sc(F)cc2NC(=O)O[C@H](C)c2ccccc2Cl)ccc1-c1ccc(C2(C(=O)O)CC2)cc1` [Example 7, Sodium (R)-1-{4′-[3-({[1-(2-chlorophenyl)ethoxy]carbonyl}amino)-5-fluorothiophen-2-yl]-2′-methoxy-[1,1′-biphenyl]-4-yl}cyclopropanecarboxylate], for which the IC50 is at most 200 nM.
The figure for `Cc1cscc1[C@@H](C)OC(=O)Nc1cc(F)sc1-c1ccc(-c2ccc(C3(C(=O)O)CC3)cc2)cc1` [Example 13, Sodium (R)-1-{4′-[5-fluoro-3-({[1-(4-methylthiophen-3-yl)ethoxy]carbonyl}amino)thiophen-2-yl]-[1,1′-biphenyl]-4-yl}cyclopropanecarboxylate] is at most 200 nM.
Consider `COc1cc(-c2sc(Cl)cc2NC(=O)O[C@H](C)c2cc(F)ccc2F)ccc1-c1ccc(C2(C(=O)O)CC2)cc1` [Example 4, Sodium (R)-1-{4′-[5-chloro-3-({[1-(2,5-difluorophenyl)ethoxy]carbonyl}amino)thiophen-2-yl]-2′-methoxy-[1,1′-biphenyl]-4-yl}cyclopropanecarboxylate], for which the IC50 is at most 200 nM.
Consider `COc1cc(-c2sc(Cl)cc2NC(=O)O[C@H](C)c2ccccc2)ccc1-c1ccc(C2(C(=O)O)CC2)cc1` [Example 1, Sodium (R)-1-[4′-(5-chloro-3-{[(1-phenylethoxy)carbonyl]amino}thiophen-2-yl)-2′-methoxy-[1,1′-biphenyl]-4-yl]cyclopropanecarboxylate], for which the IC50 is at most 200 nM.
Take `C[C@@H](OC(=O)Nc1cc(Cl)sc1-c1ccc(-c2ccc(C3(C(=O)O)CC3)cc2)cc1)c1ccsc1` [Example 10, Sodium (R)-1-{4′-[5-chloro-3-({[1-(thiophen-3-yl)ethoxy]carbonyl}amino)thiophen-2-yl]-[1,1′-biphenyl]-4-yl}cyclopropanecarboxylate]: the IC50 was at most 200 nM.
